Reference: US7955808B2, “Bitter taste receptors” (Deutsches Institut für Ernährungsorschung, Stiftung des …, priority 2002, dated 2011)
Read-outs that look alike come from different tables or passages of the source.

Tests used:
hTAS2R38 = target: T1, hTAS2R38 (Homo sapiens, UniProt P59533); test: FLIPR assay, heterologous expression of hTAS2R38; format: cell-based
T1 construct: gene-specific primers that span the complete coding region ... contains the first 45 amino acids of the rat somatostatin type 3 receptor
T1 sequence (P59533 1-333 A49P/I296V): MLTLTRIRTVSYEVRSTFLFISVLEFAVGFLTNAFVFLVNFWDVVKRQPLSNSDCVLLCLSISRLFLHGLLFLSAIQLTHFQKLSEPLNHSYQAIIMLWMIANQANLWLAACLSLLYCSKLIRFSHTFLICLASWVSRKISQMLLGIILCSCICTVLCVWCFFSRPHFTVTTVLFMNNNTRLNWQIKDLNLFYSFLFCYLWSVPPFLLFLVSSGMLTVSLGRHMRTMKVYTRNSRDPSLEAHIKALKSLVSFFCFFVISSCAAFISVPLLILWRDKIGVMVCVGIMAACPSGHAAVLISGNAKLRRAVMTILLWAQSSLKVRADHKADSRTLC
Text: These cells stably express a chimeric G protein constructed from human Gα16 and rat gustducin. Finally, we seeded the transfected cells at a density of 3×10^3 cells per well into 96-well black-wall, clear-bottom microtiter plates (Greiner).
Co-transfection of TAS2Rs with gustducin and phospholipase-Cβ2 into HEK-293 cells. Alternatively, we transfected simultaneously plasmid DNAs encoding one of the TAS2Rs, phospholipase-Cβ2 and α-gustducin into HEK-293 cells using the lipofectamine method. Additional cotransfection of G-protein β and γ-subunits may improve the bitter tastant-induced responses. Thereafter, the transfected cells were seeded at a density of 3×10^3 cells per well into 96-well black-wall, clear-bottom microtiter plates (Greiner).
Thereafter, cells were gently washed in HBS by an automated plate washer (Denley Cellwash, Labsystenms) and transferred to the FLIPR (Molecular Devices). The FLIPR integrates an argon laser excitation source, a 96-well pipettor, and a detection system utilizing a Charged Coupled Device imaging camera. […] Fluorescence data were collected 1 min before and 10 min after stimulation. Data were collected every 6 s before and every 1 s after agonist stimulation. 50 μl of 3× concentrated agonists were delivered within 2 by the integrated 96-well pipettor to the wells containing 100 μl HBS. Agonist responses were quantified using the amplitudes of the fluorescence peaks. We averaged the responses of five wells containing cells expressing the same receptor and that received the same stimulus. Calcium traces were determined in triplicate of mock-transfected cells stimulated with the same concentration of tastant.

human panelists [1] = test: Human taste adaptation experiment; format: in vivo; settings: for initial bitterness score by test panel: 8 mM, 15 s; for own bitterness during prolonged stimulation (adaptation): 120 s or 180 s in the mouth
Protocol: To investigate adaptation, the 8 panelists first maintained aqueous solutions (5 ml) of phenyl-β-D-glucopyranoside (8 mM), phenyl-alpha-D-glucopyranoside (180 mM), salicin (8 mM), or helicin (8 mM) for 15 s in their oral cavities and evaluated the bitter intensity as described above. After 30 min, they kept a denatonium benzoate solution (5 ml, 0.0003 mM) for 15 s in their mouth and evaluated its bitterness. The panelists spat off the denatonium benzoate solution, took up the phenyl-β-D-glucopyranoside or the phenyl-alpha-D-glucopyranoside solutions orally for 120 s or 180 s and judged their bitterness intensity after 15, 30, 60, 120 and 180s. Thereafter, the panelists spat off these solutions and then sequentially took up salicin, helicin (5 ml, 8 mM) and denatonium benzoate (5 ml, 0.0003 mM) and evaluated bitterness intensities of these solutions after 15 s. After an additional 30 min, the first experiment was repeated. The data of three different sessions for each panelist were averaged. Intensity values between individuals and separate sessions differed by not more than ±0.5 units.

human panelists [2] = test: Human taste experiments: bitter thresholds and dose-response by sensory panel; format: in vivo; settings: for Threshold Value Human: bitter threshold, triangle test, tap water; for EC50: bitterness intensity dose-response
Protocol: 15 experienced panelists in a sensory panel room at 22-25° C. determined bitter thresholds on three different sessions using a triangle test with tap water as solvent, according to methodology set out in J. Agric. Food Chem., 49, 231-238 (2001), or Mailgaard M et al, “Sensory Evaluation Techniques” (CRC Press LLC, New York 1999). For dose-response relations, bitter tastant concentration series were presented to 10 trained panelists in random order. The panelists ranked the samples in increasing order of intensity and, for each concentration, evaluated bitterness intensity on a scale from 0 to 5 (ref. 24). The dose-response curves of three different sessions were averaged. The intensity values between individuals and separate sessions differed by not more than 0.5 units.

hTAS2R16 [3] = target: T2, hTAS2R16 (Homo sapiens, UniProt Q9NYV7, R222H); test: FLIPR calcium assay, hTAS2R16-expressing HEK293/15 transfectants; format: cell-based
T2 construct: gene-specific primers that span the complete coding region of the individual hTAS2R genes; first 45 amino acids of rat somatostatin type 3 receptor (cell surface-targeting signal) (N); expressed in transfected cells; host or cells: HEK293/15 cells (HEK293 stably expressing Galpha15), transient transfection
T2 sequence (Q9NYV7 1-291 R222H): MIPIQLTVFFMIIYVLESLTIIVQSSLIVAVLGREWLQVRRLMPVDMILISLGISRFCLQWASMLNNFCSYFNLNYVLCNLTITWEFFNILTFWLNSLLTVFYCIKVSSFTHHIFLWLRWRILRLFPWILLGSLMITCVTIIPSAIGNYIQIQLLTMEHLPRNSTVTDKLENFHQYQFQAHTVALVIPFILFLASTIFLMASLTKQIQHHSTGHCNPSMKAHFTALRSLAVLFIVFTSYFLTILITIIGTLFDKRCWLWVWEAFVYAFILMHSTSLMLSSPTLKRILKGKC
Protocol: A fluorescence imaging plate reader (FLIPR, Molecular Devices) was used to functionally screen cell populations transiently transfected with expression vectors encoding the above-described 24 bitter receptors and to establish concentration-response curves for hTAS2R16 and hTASR10. […] For the FLIPR experiments the HEK293/15 cells were grown to 50% confluence. […] After 48 h the cells in each well were transfected using Lipofectamine 2000 and 24-30 h later were loaded with FIuo4AM (Molecular Probes). Thereafter they were stimulated with bitter compounds (SigmaAldrich, further purified by reversed-phase HPLC to >99% purity). Calcium signals were recorded simultaneously from each well at 1 Hz at 510 nm after excitation at 488 nm and the recordings were corrected for cell density. […] The calculations rest on at least four independent transfection experiments.
EC50 and threshold values obtained with hTAS2R16-expressing transfectants are shown in Table 1 below and the results are described in Example 4.

hTAS2R16 [4] = target: T2, hTAS2R16; test: FLIPR assay, heterologous expression of hTAS2R16; format: cell-based
Text: (§1) Transient transfection of TAS2Rs into HEK-293T-Gα16gustducin44 cells.

hTAS2R10 = target: T3, hTAS2R10 (Homo sapiens, UniProt Q9NYW0, T156M); test: FLIPR assay, heterologous expression of hTAS2R10; format: cell-based
T3 construct: gene-specific primers that span the complete coding region of the individual hTAS2R genes; first 45 amino acids of rat somatostatin type 3 receptor (cell surface-targeting signal) (N); expressed in transfected cells; host or cells: HEK-293T-Gα16gustducin44 cells (alternatively HEK-293 co-transfected with phospholipase-Cβ2 and α-gustducin)
T3 sequence (Q9NYW0 1-307 T156M): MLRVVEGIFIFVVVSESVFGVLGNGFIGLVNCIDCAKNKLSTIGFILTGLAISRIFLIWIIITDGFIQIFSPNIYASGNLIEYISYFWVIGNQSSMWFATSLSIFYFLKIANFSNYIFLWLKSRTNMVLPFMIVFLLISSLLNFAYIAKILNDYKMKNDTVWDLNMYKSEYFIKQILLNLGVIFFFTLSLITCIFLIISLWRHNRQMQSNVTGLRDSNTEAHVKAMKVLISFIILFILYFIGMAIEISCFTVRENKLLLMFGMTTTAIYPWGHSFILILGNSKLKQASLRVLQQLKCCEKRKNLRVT
Text: as §1

| Compound | Approx. Threshold (hTAS2R38) [µM] | receptor activation (in words) (hTAS2R38) | EC50 (hTAS2R38; read-out: EC50) [µM] | Threshold Value Human (human panelists [2]) [mM] | Threshold (hTAS2R16 [4]; hTAS2R16) | other results |
| --- | --- | --- | --- | --- | --- | --- |
| CC(=O)NC(N)=S [Acetylthiourea] | 2 | activated | 15 |  |  |  |
| O=c1cc(O)[nH]c(=S)[nH]1 [2-Thiobarbituric acid] |  | activated |  |  |  | reacts at (hTAS2R38): reacts at 10 mM |
| O=Cc1ccccc1O[C@@H]1O[C@H](CO)[C@@H](O)[C@H](O)[C@H]1O [Compound 3, helicin] |  |  |  | 0.4 ± 0.1 | 0.3 ± 0.1 mM | initial bitterness score by test panel (human panelists [1]): equally intensely bitter; bitterness after prolonged stimulation with phenyl-beta-D-glucopyranoside (cross-adaptation) (human panelists [1]; in vivo): less bitter; EC50 (human panelists [2]): 2200 µM; EC50 (hTAS2R16 [3]): 2300 µM; Threshold Value FLIPR (hTAS2R16 [3]): 0.3 ± 0.1 mM; EC50 (hTAS2R16 [4]; hTAS2R16, read-out: EC50): 2300 ± 400 µM |
| COc1cc2c(cc1OC)[C@@]13CCN4CC5=CCO[C@H]6CC(=O)N2[C@H]1[C@H]6[C@H]5C[C@H]43 [Brucine] |  |  |  |  |  | EC50 (hTAS2R10): 60 µM; Approx. Threshold (hTAS2R10; hTAS2R10): 0.01 mM; receptor activation (in words) (hTAS2R10; hTAS2R10): activated |
| O=[N+]([O-])c1ccc(S[C@@H]2O[C@H](CO)[C@@H](O)[C@H](O)[C@H]2O)cc1 [4-Nitrophenyl-β-D-Thioglucoside] |  |  |  |  | 1 − 5 mM |  |
| O=[N+]([O-])c1ccc(O[C@@H]2O[C@H](CO)[C@@H](O)[C@H](O)[C@@H]2O)cc1 [4-Nitrophenyl-β-D-Mannoside] |  |  |  |  | 1 − 3 mM |  |
| OC[C@H]1O[C@@H](Oc2ccc3ccccc3c2)[C@H](O)[C@@H](O)[C@@H]1O [Compound 6, naphthyl-beta-D-pyranoside] |  |  |  | 0.2 ± 0.1 |  | EC50 (human panelists [2]; Homo sapiens): 1400 µM; EC50 (hTAS2R16 [3]): 1000 µM; EC50 (hTAS2R16 [4]; hTAS2R16, read-out: EC50): 1000 ± 100 µM |
| CCNC(N)=S [N-Ethylthiourea] | 30 | activated | 260 |  |  |  |
| OC[C@H]1O[C@@H](Oc2ccc(O)cc2)[C@H](O)[C@@H](O)[C@@H]1O [Compound 4, arbutin] |  |  |  | 0.9 ± 0.3 | 0.5 ± 0.2 mM | EC50 (human panelists [2]): 5400 µM; EC50 (hTAS2R16 [3]): 5800 µM; Threshold Value FLIPR (hTAS2R16 [3]): 0.5 ± 0.2 mM; EC50 (hTAS2R16 [4]; hTAS2R16, read-out: EC50): 5800 ± 900 µM |
| OC[C@H]1O[C@@H](Oc2ccccc2)[C@H](O)[C@@H](O)[C@H]1O [Compound 10, phenyl-beta-D-galactopyranoside] |  |  |  | 40 ± 13 |  | EC50 (hTAS2R16 [3]): > 100000 µM; Threshold Value FLIPR (hTAS2R16 [3]): n.r. (No response up to 100 mM) |
| Thioacetamide | 100 | activated |  |  |  |  |
| O=c1ccc2cc(O[C@@H]3O[C@H](CO)[C@@H](O)[C@H](O)[C@H]3O)c(O)cc2o1 [Compound 9, esculin] |  |  |  | 4 ± 1 | 4 ± 2 mM | Threshold Value FLIPR (hTAS2R16 [3]): 4 ± 2 mM |
| N#CC(O[C@@H]1O[C@H](CO[C@@H]2O[C@H](CO)[C@@H](O)[C@H](O)[C@H]2O)[C@@H](O)[C@H](O)[C@H]1O)c1ccccc1 (stereo partly shown) [Compound 8, amygdalin] |  |  |  |  |  | EC50 (hTAS2R16 [3]): 20000 µM; EC50 (hTAS2R16 [4]): 20000 ± 3400 µM |
| O=[N+]([O-])c1ccc(O[C@@H]2O[C@H](CO)[C@@H](O)[C@H](O)[C@H]2O)cc1 [4-Nitrophenyl-β-D-Glucoside] |  |  |  |  | 1 − 3 mM |  |
| S=C1NCCN1 [2-Imidazolidinethione] | 10 | activated |  |  |  |  |
| COC1OC(CO)C(O)C(O)C1O [Compound 7, methyl-beta-D-lucopyranoside] |  |  |  | 32 ± 11 |  |  |
| O=c1cc[nH]c(=S)[nH]1 [Compound 2-Thiouracil, 2-Thiouracil] | 300 | activated | ~2000 |  |  |  |
| OC[C@H]1O[C@@H](Oc2ccccc2)[C@H](O)[C@@H](O)[C@@H]1O [Compound 1, phenyl-beta-D-glucopyranoside] |  |  |  | 0.1 ± 0.05 | 0.07 ± 0.02 mM | initial bitterness score by test panel (human panelists [1]): equally intensely bitter; own bitterness during prolonged stimulation (adaptation) (human panelists [1]): declined; EC50 (human panelists [2]): 700 µM; EC50 (hTAS2R16 [3]): 1100 µM; Threshold Value FLIPR (hTAS2R16 [3]): 0.07 ± 0.02 mM; EC50 (hTAS2R16 [4]; hTAS2R16, read-out: EC50): 1100 ± 100 µM |
| CN(C)C(=S)N(C)C [Tetramethylthiourea] | 10 to 30 | activated | 100 |  |  |  |
| N-Methylthiourea | 100 | activated | 600 to 800 |  |  |  |
| CC(=S)Nc1ccccc1 [Thioacetanilide] | 3 | activated | 18 |  |  |  |
| O=[N+]([O-])c1ccccc1O[C@@H]1O[C@H](CO)[C@@H](O)[C@H](O)[C@H]1O [Compound 5, 2-nitro-phenyl-beta-D-glucopyranoside] |  |  |  |  | 0.3 − 1 mM | Threshold Value FLIPR (hTAS2R16 [3]): 1.5 ± 0.5 mM |
| OCC1OC(Oc2ccccc2)C(O)C(O)C1O [Compound 11, phenyl-alpha-D-glucopyranoside] |  |  |  | 9 ± 3 |  | own bitterness during prolonged stimulation (adaptation) (human panelists [1]): desensitized strongly; cross-adaptation with all tested beta-D-glucopyranosides (human panelists [1]; in vivo): failed to cross-adapt; EC50 (human panelists [2]; Homo sapiens): 50000 µM; EC50 (hTAS2R16 [3]): > 100000 µM; Threshold Value FLIPR (hTAS2R16 [3]): n.r. (No response up to 100 mM) |
| N,N-dimethylthioformamide [N,N-Dimethyl- thioformamide] | 10 | activated | 55 |  |  |  |
| Cc1cc(=O)[nH]c(=S)[nH]1 [4(6)-Methyl-2-thiouracil] | 20 | activated | 180 |  |  |  |
| NC(=S)Nc1ccccc1 [Phenylthiocarbamid] | 0.3 | activated |  |  |  | EC50 (hTAS2R38): 2 µM |
